Read-outs that look alike come from different tables or passages of the source.
Tests used:
[1] = molecular target: T1, human FLT3 protein (FLT3 (WT)) (Homo sapiens, UniProt P36888); assay: FLT3 inhibition test (FLT3 enzyme inhibition, time-resolved fluorescence of substrate peptide phosphorylation); assay type: biochemical; conditions: read-out: FLT3 (WT) enzyme inhibition activity
T1 construct: human FLT3 protein (intracellular region, 564 to 993 aa); GST; purchased Carna Biosciences; host or cells: baculovirus expression system
T1 sequence (P36888 564-993): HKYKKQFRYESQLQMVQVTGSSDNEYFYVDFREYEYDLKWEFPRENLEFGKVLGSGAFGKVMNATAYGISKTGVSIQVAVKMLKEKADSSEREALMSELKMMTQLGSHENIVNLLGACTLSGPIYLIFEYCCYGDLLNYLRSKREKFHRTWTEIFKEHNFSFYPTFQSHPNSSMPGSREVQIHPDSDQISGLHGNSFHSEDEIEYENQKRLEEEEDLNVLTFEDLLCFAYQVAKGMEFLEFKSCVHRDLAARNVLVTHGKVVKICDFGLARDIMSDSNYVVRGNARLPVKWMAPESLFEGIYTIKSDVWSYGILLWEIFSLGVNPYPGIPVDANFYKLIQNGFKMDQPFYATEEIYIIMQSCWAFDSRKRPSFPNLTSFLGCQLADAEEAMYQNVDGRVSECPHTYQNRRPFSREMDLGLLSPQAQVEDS
Procedure, shortened: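 Substrate peptide phosphorylation detected by time-resolved fluorescence after a 30 min kinase reaction at 25° C with 50 μM ATP (final). Beforehand, compound and FLT3 (WT, 1.2 μg) stood 15 min at 25° C in HEPES buffer pH 7.5 containing MgCl2, NaCl, BSA and DTT.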

[2] = test system: Molm-13 cells; assay: Leukemia cell proliferation inhibition test (ATPlite), Molm-13; assay type: cell-based; conditions: Homo sapiens, read-out: MOLM13 cell proliferation inhibition effect
Procedure, shortened: (§1)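 72 h proliferation, 37° C/5% CO2; 10,000 cells/well, RPMI/10% FBS; ATPlite luminescence (RLU); 0.1% DMSO taken as 0% inhibition; GI50 via sigmoid fit, n=2.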

[3] = test system: MV4-11 cells; assay: Leukemia cell proliferation inhibition test (ATPlite), MV4-11; assay type: cell-based; conditions: Homo sapiens, read-out: MV4-11 cell proliferation inhibition effect
Procedure, shortened: as §1

[4] = GST-fused human FLT3 (564 to 993 aa), ATP 50 μM
[5] = MOLM-13, 72 h, Molm-13, 72 hours culture, ATPlite, GI50 per method
[6] = MV4-11, 72 h, MV4-11, 72 hours culture, ATPlite, GI50 per method

Structure (SMILES) | IC50 [1, 4] [nM] | IC50 [2, 5] [nM] | IC50 [3, 6] [nM] | IC50 ([1]; FLT3 (WT)) [nM] | IC50 ([2]; MOLM-13, MOLM13 cell) [nM] | IC50 ([3]; MV4-11, MV4-11 cell) [nM]
CNc1nc(Nc2cccc(C#N)c2)ncc1C#C[C@H]1C[C@@H](NC(=O)[C@H](C)N(C)C(=O)/C=C/CN(C)C)C1 [Compound 13-15, (E)-N—((S)-1-(((1S,3R)-3-((2-((3-Cyanophenyl)amino)-4-(methylamino)pyrimidin-5-yl)ethynyl)cyclobutyl)amino)-1-oxopropan-2-yl)-4-(dimethylamino)-N-methyl-2-butenamide] | < 10 | < 10 | < 10 |  |  | 
CNc1nc(Nc2ccc(F)cc2)ncc1C#C[C@@H]1CCC[C@H](NC(=O)[C@H](C)N(C)C(=O)/C=C/CN(C)C)C1 [Compound 21-41] |  |  |  | < 10 | < 10 | < 10
COCCCNc1nc(Nc2ccc(C#N)cc2)ncc1C#C[C@H]1C[C@@H](NC(=O)[C@H](C)N(C)C(=O)/C=C/CN(C)C)C1 [Compound 15-16, (E)-N—((S)-1-(((1S,3R)-3-((2-((4-Cyanophenyl)amino)-4-((3-methoxypropyl)amino)pyrimidin-5-yl)ethynyl)cyclobutyl)amino)-1-oxopropan-2-yl)-4-(dimethylamino)-N-methyl-2-butenamide] | < 10 | < 10 | < 10 |  |  | 
CNc1nc(Nc2cccc(C#N)c2)ncc1C#CCCCNC(=O)[C@@H]1C[C@H](F)CN1C(=O)/C=C/CN(C)C [Compound 7-75] | < 10 | < 10 | < 10 |  |  | 
CCCNc1nc(Nc2ccc(C#N)cc2)ncc1C#CCCCNC(=O)[C@@H]1CCN1C(=O)/C=C/CN(C)C [Compound 7-52] | < 10 | < 10 | < 10 |  |  | 
C=CC(=O)NCC(=O)Nc1cccc(NC(=O)c2cnc(Nc3ccc(C#N)cc3)nc2NCCC)c1 [Compound 6-2, N-(3-(2-(acrylylamido)acetamido)phenyl)-2-((4-cyanophenyl)amino)-4-(propylamino)pyrimidine-5-carboxamide] | 10 to 100 | 100 to 1000 | 10 to 100 |  |  | 
CC[C@@H](C(=O)NCCCC#Cc1cnc(Nc2ccc(F)nc2)nc1Nc1ccc(OC)cc1)N(C)C(=O)/C=C/CN(C)C [Compound 10-37] | < 10 | < 10 | < 10 |  |  | 
CCCNc1nc(NCCc2ccncc2)ncc1C#Cc1cccc(NC(=O)[C@H](C)N(C)C(=O)/C=C/CN(C)C)c1 [Compound 8-6] | < 10 | < 10 | < 10 |  |  | 
CCCNc1nc(Nc2ccc(C#N)cc2)ncc1C#CCNC(=O)CCNC(=O)/C=C/CN(C)C [Compound 7-90] | < 10 | 100 to 1000 | 100 to 1000 |  |  | 
CCCNc1nc(Nc2cccc(F)c2)ncc1C#CCCCNC(=O)[C@H](CCC)N(C)C(=O)/C=C/CN(C)C [Compound 7-18] | < 10 | 10 to 100 | 10 to 100 |  |  | 
C[C@@H](C(=O)NCCCC#Cc1cnc(Nc2ccc(F)cc2)nc1N1CCCCC1)N(C)C(=O)/C=C/CN(C)C [Compound 10-38] | < 10 | 10 to 100 | < 10 |  |  | 
COCCCNc1nc(Nc2ccc(F)nc2)ncc1C#CCCCNC(=O)[C@H](C)N(C)C(=O)/C=C/CN(C)C [Compound 10-30] | < 10 | 10 to 100 | < 10 |  |  | 
CCCNc1cc(Nc2ccc(C#N)cc2)ncc1C#CCCCNC(=O)[C@H](C)N(C)C(=O)/C=C/CN(C)C [Compound 18-1, (S,E)-N-(1-((5-(6-((4-cyanophenyl)amino)-4-(propylamino)pyridin-3-yl)-4-pentyn-1-yl)amino)-1-oxopropan-2-yl)-4-(dimethylamino)-N-methyl-2-butenamide] | < 10 | 10 to 100 | 10 to 100 |  |  | 

Results, then the molecule that gave them:

IC50 [1, 4] [nM] | IC50 [2, 5] [nM] | IC50 [3, 6] [nM] | IC50 ([1]; FLT3 (WT)) [nM] | IC50 ([2]; MOLM-13, MOLM13 cell) [nM] | IC50 ([3]; MV4-11, MV4-11 cell) [nM] | Structure (SMILES)
< 10 | 10 to 100 | < 10 |  |  |  | CCCNc1nc(NCCc2ccncc2)ncc1C(=O)Nc1ccc(C)c(NC(=O)CNC(=O)/C=C/CN(C)C)c1 [Compound 1-8]
< 10 | < 10 | < 10 |  |  |  | CCCNc1nc(Nc2cccc(OC(F)F)c2)ncc1C#CCCCNC(=O)[C@H](C)N(C)C(=O)/C=C/CN(C)C [Compound 9-28]
< 10 | 100 to 1000 | 100 to 1000 |  |  |  | CCCNc1nc(Nc2ccc(C(N)=O)cc2)ncc1C(=O)NCCCNC(=O)[C@H](C)NC(=O)/C=C/CN(C)C [Compound 5-4]
< 10 | 10 to 100 | 10 to 100 |  |  |  | CCCNc1nc(Nc2ccc(C(N)=O)cc2)ncc1C(=O)NCCCNC(=O)CN(C)C(=O)/C=C/CN(C)C [Compound 5-5]
< 10 | 100 to 1000 | 100 to 1000 |  |  |  | CCCNc1nc(NC(=O)Nc2ccncc2)ncc1C(=O)Nc1cccc(NC(=O)[C@H](C)NC(=O)/C=C/CN(C)C)c1 [Compound 6-15]
< 10 | < 10 | < 10 |  |  |  | CCCNc1nc(Nc2ccc(C(N)=O)cc2)ncc1C#CCCCNC(=O)CNC(=O)/C=C/CN(C)C [Compound 7-2]
< 10 | < 10 | < 10 |  |  |  | CNc1nc(Nc2ccc(C#N)cc2)ncc1C#CCCCNC(=O)[C@H](C)N(C)C(=O)/C=C/CN(C)C [Compound 10-45]

Source: patent US9145415B2, “Nitrogen-containing heterocyclic compound or salt thereof” (FUJIFILM Corporation, priority 2012, dated 2015)
